Laboratory results taken from patent US20240270762A1, “PENICILLIN-BINDING PROTEIN INHIBITORS” (priority 2021, published 2024).
≈ marks a conversion by molar mass, not a printed value.

Tests used:
[1] = target: T1, PBP2 from Neisseria gonorrhoeae (FA19) (Neisseria gonorrhoeae, UniProt P08149); experiment: Bocillin-FL fluorescence polarization competition binding, N. gonorrhoeae PBP2; settings: fluorescence polarization competition binding assay using Bocillin-FL, read-out: N. gonorrhoeae PBP2 Potency
T1 construct: made in house
T1 sequence (P08149 whole entry): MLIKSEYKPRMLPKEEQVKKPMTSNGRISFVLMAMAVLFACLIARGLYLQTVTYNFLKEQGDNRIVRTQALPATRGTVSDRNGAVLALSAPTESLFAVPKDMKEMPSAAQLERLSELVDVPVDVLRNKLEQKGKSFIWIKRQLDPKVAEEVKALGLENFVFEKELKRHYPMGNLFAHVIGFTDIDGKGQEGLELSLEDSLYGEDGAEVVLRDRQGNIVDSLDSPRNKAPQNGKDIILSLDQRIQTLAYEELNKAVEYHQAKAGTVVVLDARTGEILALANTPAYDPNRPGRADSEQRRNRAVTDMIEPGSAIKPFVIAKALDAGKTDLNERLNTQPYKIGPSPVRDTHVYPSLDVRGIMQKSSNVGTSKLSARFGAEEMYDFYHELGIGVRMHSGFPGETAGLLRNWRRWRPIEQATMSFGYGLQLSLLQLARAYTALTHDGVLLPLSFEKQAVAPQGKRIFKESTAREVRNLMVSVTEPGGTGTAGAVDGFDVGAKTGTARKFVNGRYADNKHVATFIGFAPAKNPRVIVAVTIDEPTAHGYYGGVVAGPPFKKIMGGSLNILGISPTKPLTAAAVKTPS
Description: To determine the ability of boronic acid-based test PBP inhibitors to bind Penicillin Binding Proteins (PBPs), Bocillin-FL (fluorescently-labeled penicillin V; ThermoFisher Scientific) was used in a fluorescence polarization (FP) competition binding assay to assess inhibitor binding to PBP3 from Escherichia coli (K-12), PBP3 from Pseudomonas aeruginosa (PAO1), PBP1a and PBP3 from Acinetobacter baumannii (ATCC 19606), and PBP2 from Neisseria gonorrhoeae (FA19). PBPs were cloned and purified as described previously (E. coli PBP3, King, D. T, et al., ACS Infectious Diseases 2015, 1, 175-184; P. aeruginosa PBP3, Han et. al., PNAS 2010, 107 (51), 22002-22007; A. baumannii PBPs, Penwell et. al., Antimicrob. Agents Chemother. 2015, 59 (3), 1680-1689; N. gonorrhoeae PBP2, Singh et. al., J. Biol. Chem. 2019, 294 (38), 14020-14032). To establish assay conditions for competition binding, enzyme titration/saturation binding experiments were initially performed. Bocillin-FL was prepared at 0.2 μM in a buffer comprised of 50 mM Hepes (pH 8.0), 300 mM NaCl and 10% (v/v) glycerol for reactions with E. coli, P. aeruginosa and N. gonorrhoeae PBPs, and 25 mM Tris (pH 8.0), 200 mM NaCl, 10% (v/v) glycerol and 0.005% (v/v) Tween 20 for reactions with A. baumannii PBPs. Saturation binding was performed by mixing 40 μl of PBP solutions ranging in concentrations from 0-24 μM with 40 μl of the 0.2 μM Bocillin-FL solution, in individual wells of a black 384-well microplate. FP was measured immediately upon mixing (Excitation, 490 nm; Emission, 520 nm; g-factor, 0.96), using a Cytation3 (BioTek) microplate reader and measured continuously for up to 120 minutes. […] The competition binding assay (80 μl final volume) was validated using beta-lactams and PBPs at final concentrations of: 1.5 μM for E. coli PBP3; 0.75 μM for P. aeruginosa PBP3; 1 μM for A. baumannii PBP1a; 0.2 μM for A. baumannii PBP3; and 0.25 μM for N. gonorrhoeae PBP2. Bocillin-FL was at 0.1 μM (0.05 μM with A. baumannii PBP1a) and beta-lactam concentrations ranged from 0-1,000 μM. E. coli PBP3 was incubated with increasing concentrations of ampicillin in a black 384-well microplate (Corning) for 30 minutes. P. aeruginosa PBP3 was incubated for 15 minutes with aztreonam, whereas A. baumannii PBP1a and PBP3 were incubated for 15 minutes with meropenem, and then Bocillin-FL was added followed immediately by the FP measurement for up to 60 minutes. […] The beta-lactam potency was reported as the concentration of beta-lactam required to reduce the amount of PBP bound-Bocillin-FL by 50% (EC50). […] Binding assays for boronic acid PBP inhibitors were performed in an identical fashion for the respective PBPs.

E. coli ATCC 25922 = experiment: microbe, parasite or virus in culture; type: cell-based; settings: Escherichia coli, ATCC25922, read-out: MIC E. coli 25922
E. coli D22 = experiment: microbe, parasite or virus in culture; type: cell-based; settings: Escherichia coli, D22, read-out: MIC E. coli D22
K. pneumoniae UMM = experiment: microbe, parasite or virus in culture; type: cell-based; settings: Klebsiella pneumoniae, read-out: MIC K. pneumoniae UMM
P. aeruginosa ATCC 27853 = experiment: microbe, parasite or virus in culture; type: cell-based; settings: Pseudomonas aeruginosa, ATCC27853, read-out: MIC P. aeruginosa ATCC 27853
N. gonorrhoeae MS11 = experiment: Liquid broth MIC in Fastidious broth; settings: Neisseria gonorrhoeae, MS11, read-out: Minimum Inhibitory Concentration (MIC), N. gonorrhoeae MS11
N. gonorrhoeae WHO G = experiment: Liquid broth MIC in Fastidious broth; settings: Neisseria gonorrhoeae, read-out: Minimum Inhibitory Concentration (MIC), N. gonorrhoeae WHO G
N. gonorrhoeae WHO K = experiment: Liquid broth MIC in Fastidious broth; settings: Neisseria gonorrhoeae, read-out: Minimum Inhibitory Concentration (MIC), N. gonorrhoeae WHO K
N. gonorrhoeae CDC-0197 = experiment: Liquid broth MIC in Fastidious broth; settings: Neisseria gonorrhoeae, CDC0197, read-out: Minimum Inhibitory Concentration (MIC), N. gonorrhoeae CDC-0197

Compound	EC50 [1] [µM]	MIC (E. coli ATCC 25922) [µg/mL]	MIC (E. coli D22) [µg/mL]	MIC (K. pneumoniae UMM) [µg/mL]	MIC (P. aeruginosa ATCC 27853) [µg/mL]	MIC (N. gonorrhoeae MS11) [µg/mL]	MIC (N. gonorrhoeae WHO G) [µg/mL]	MIC (N. gonorrhoeae WHO K) [µg/mL]	MIC (N. gonorrhoeae CDC-0197) [µg/mL]
Nc1nc(C(=O)N[C@@H](C(=O)N[C@H]2Cc3cccc(C(=O)O)c3OB2O)c2ccc(P(=O)(O)O)cc2)cs1 (racemic) [Example 51, (R)-3-((S)-2-(2-aminothiazole-4-carboxamido)-2-(4-phosphonophenyl)acetamido)-2-hydroxy-3,4-dihydro-2H-benzo[e][1,2]oxaborinine-8-carboxylic acid and (R)-3-((R)-2-(2-aminothiazole-4-carboxamido)-2-(4-phosphonophenyl)acetamido)-2-hydroxy-3,4-dihydro-2H-benzo[e][1,2]oxaborinine-8-carboxylic acid]	< 10	> 128	2 to 4 (≈ 3.66 to 7.32 µM)	32 to 64 (≈ 58.6 to 117 µM)	> 128	< 1	< 1	1 to 2 (≈ 1.83 to 3.66 µM)	< 1
CCN1CCN(C(=O)N[C@@H](C(=O)N[C@H]2Cc3cccc(C(=O)O)c3OB2O)c2ccc(P(=O)(O)O)c(F)c2)C(=O)C1=O (single isomer, unassigned) [Example 7]	< 10	32 to 64 (≈ 52.8 to 106 µM)	2 to 4 (≈ 3.3 to 6.6 µM)	32 to 64 (≈ 52.8 to 106 µM)	32 to 64 (≈ 52.8 to 106 µM)	< 1	< 1	< 1	< 1
O=C(O)c1c(F)ccc2c1OB(O)[C@@H](NC(=O)C(NC(=O)N1CCN(Cc3ccc(O)c(O)c3Cl)C(=O)C1=O)c1ccc(P(=O)(O)O)c(F)c1)C2 (stereo partly drawn) [Example 23, (3R)-3-(2-(4-(2-chloro-3,4-dihydroxybenzyl)-2,3-dioxopiperazine-1-carboxamido)-2-(3-fluoro-4-phosphonophenyl)acetamido)-7-fluoro-2-hydroxy-3,4-dihydro-2H-benzo[e][1,2]oxaborinine-8-carboxylic acid]	< 10					< 1	< 1	< 1	< 1
O=C(O)c1cccc2c1OB(O)[C@@H](NC(=O)C(NC(=O)N1CCN(Cc3ccc(O)c(O)c3Cl)C(=O)C1=O)c1ccc(P(=O)(O)O)cc1)C2 (stereo partly drawn) [Example 24, (3R)-3-(2-(4-(2-chloro-3,4-dihydroxybenzyl)-2,3-dioxopiperazine-1-carboxamido)-2-(4-phosphonophenyl)acetamido)-2-hydroxy-3,4-dihydro-2H-benzo[e][1,2]oxaborinine-8-carboxylic acid]	< 10					< 1	< 1	4 to 8 (≈ 5.58 to 11.2 µM)	1 to 2 (≈ 1.4 to 2.79 µM)
O=C(O)c1c(F)ccc2c1OB(O)[C@@H](NC(=O)C(NC(=O)N1CCN(Cc3cc(F)c(O)c(O)c3Cl)C(=O)C1=O)c1ccc(P(=O)(O)O)cc1)C2 (stereo partly drawn) [Example 45, (3R)-3-(2-(4-(2-chloro-5-fluoro-3,4-dihydroxybenzyl)-2,3-dioxopiperazine-1-carboxamido)-2-(4-phosphonophenyl)acetamido)-7-fluoro-2-hydroxy-3,4-dihydro-2H-benzo[e][1,2]oxaborinine-8-carboxylic acid]	< 10					< 1	< 1	1 to 2 (≈ 1.33 to 2.66 µM)	1 to 2 (≈ 1.33 to 2.66 µM)
O=C(O)c1c(F)ccc2c1OB(O)[C@@H](NC(=O)C(NC(=O)N1CCN(Cc3ccc(O)c(O)c3Cl)C1=O)c1ccc(P(=O)(O)O)cc1)C2 (stereo partly drawn) [Example 46, (3R)-3-(2-(3-(2-chloro-3,4-dihydroxybenzyl)-2-oxoimidazolidine-1-carboxamido)-2-(4-phosphonophenyl)acetamido)-7-fluoro-2-hydroxy-3,4-dihydro-2H-benzo[e][1,2]oxaborinine-8-carboxylic acid]	< 10					< 1	< 1	1 to 2 (≈ 1.41 to 2.83 µM)	< 1
O=C(O)c1cccc2c1OB(O)[C@@H](NC(=O)C(NC(=O)C(F)(F)F)c1ccc(P(=O)(O)O)cc1)C2 (stereo partly drawn) [Example 172, (3R)-2-hydroxy-3-(2-(4-phosphonophenyl)-2-(2,2,2-trifluoroacetamido)acetamido)-3,4-dihydro-2H-benzo[e][1,2]oxaborinine-8-carboxylic acid]		> 128	> 128	> 128	> 128	16 to 32 (≈ 31 to 62 µM)	16 to 32 (≈ 31 to 62 µM)	16 to 32 (≈ 31 to 62 µM)	16 to 32 (≈ 31 to 62 µM)
O=C(O)c1cccc2c1OB(O)[C@@H](NC(=O)[C@H](NC(=O)[C@@H]1CCCN1)c1ccc(P(=O)(O)O)cc1)C2 [Example 173, (R)-2-hydroxy-3-((R)-2-(4-phosphonophenyl)-2-((S)-pyrrolidine-2-carboxamido)acetamido)-3,4-dihydro-2H-benzo[e][1,2]oxaborinine-8-carboxylic acid]		> 128	32 to 64 (≈ 61.9 to 124 µM)	32 to 64 (≈ 61.9 to 124 µM)	> 128	16 to 32 (≈ 30.9 to 61.9 µM)	4 to 8 (≈ 7.73 to 15.5 µM)	16 to 32 (≈ 30.9 to 61.9 µM)	16 to 32 (≈ 30.9 to 61.9 µM)
O=C(O)c1cccc2c1OB(O)[C@@H](NC(=O)C(NC(=O)c1ccc[nH]c1=O)c1ccc(P(=O)(O)O)cc1)C2 (stereo partly drawn) [Example 174, (3R)-2-hydroxy-3-(2-(2-oxo-1,2-dihydropyridine-3-carboxamido)-2-(4-phosphonophenyl)acetamido)-3,4-dihydro-2H-benzo[e][1,2]oxaborinine-8-carboxylic acid]		> 128	32 to 64 (≈ 59.1 to 118 µM)	> 128	> 128	4 to 8 (≈ 7.39 to 14.8 µM)	1 to 2 (≈ 1.85 to 3.7 µM)	16 to 32 (≈ 29.6 to 59.1 µM)	16 to 32 (≈ 29.6 to 59.1 µM)
O=C(O)c1cccc2c1OB(O)[C@@H](NC(=O)[C@H](NC(=O)c1c[nH]ccc1=O)c1ccc(P(=O)(O)O)cc1)C2 [Example 175, (R)-2-hydroxy-3-((R)-2-(4-oxo-1,4-dihydropyridine-3-carboxamido)-2-(4-phosphonophenyl)acetamido)-3,4-dihydro-2H-benzo[e][1,2]oxaborinine-8-carboxylic acid]		32 to 64 (≈ 59.1 to 118 µM)	8 to 16 (≈ 14.8 to 29.6 µM)	32 to 64 (≈ 59.1 to 118 µM)	32 to 64 (≈ 59.1 to 118 µM)	1 to 2 (≈ 1.85 to 3.7 µM)	1 to 2 (≈ 1.85 to 3.7 µM)	16 to 32 (≈ 29.6 to 59.1 µM)	4 to 8 (≈ 7.39 to 14.8 µM)
O=C(O)c1cccc2c1OB(O)[C@@H](NC(=O)C(NC(=O)c1cnc[nH]c1=O)c1ccc(P(=O)(O)O)cc1)C2 (stereo partly drawn) [Example 176, (3R)-2-hydroxy-3-(2-(6-oxo-1,6-dihydropyrimidine-5-carboxamido)-2-(4-phosphonophenyl)acetamido)-3,4-dihydro-2H-benzo[e][1,2]oxaborinine-8-carboxylic acid]		> 128	> 128	> 128	32 to 64 (≈ 59 to 118 µM)	4 to 8 (≈ 7.38 to 14.8 µM)	4 to 8 (≈ 7.38 to 14.8 µM)	16 to 32 (≈ 29.5 to 59 µM)	16 to 32 (≈ 29.5 to 59 µM)
N#Cc1ccnc(C(=O)NC(C(=O)N[C@H]2Cc3cccc(C(=O)O)c3OB2O)c2ccc(P(=O)(O)O)cc2)c1 (stereo partly drawn) [Example 179, (3R)-3-(2-(4-cyanopicolinamido)-2-(4-phosphonophenyl)acetamido)-2-hydroxy-3,4-dihydro-2H-benzo[e][1,2]oxaborinine-8-carboxylic acid]		> 128	32 to 64 (≈ 58.2 to 116 µM)	> 128	> 128	16 to 32 (≈ 29.1 to 58.2 µM)	16 to 32 (≈ 29.1 to 58.2 µM)	16 to 32 (≈ 29.1 to 58.2 µM)	16 to 32 (≈ 29.1 to 58.2 µM)
